From US20260265329A1, “POLYPEPTIDE AND DERIVATIVE THEREOF, COMPOSITION, AND USE THEREOF” (HANGZHOU SCIWIND BIOSCIENCES CO., LTD., priority 2023, published 2026) come the findings set out here.

Starred links: 1 amine or outer side, 2 acyl side, 3 side chain; linkers in the order of their positions; H or OH if unused. Non-standard residues stand in square brackets, D forms with d. Residues, ends and D or L forms follow the SMILES beside them. *: point of attachment. C20 diacid = O=C(O)CCCCCCCCCCCCCCCCCCC(=O)*; γGlu = O=C(O)[C@H](CCC(=O)[*:2])N[*:1]; Hyp = O=C(O)[C@@H]1C[C@@H](O)CN1

The target of one series is T1, human amylin receptors (Homo sapiens, UniProt O60896+P30988).
T1 construct: host or cells: CHO-K1/Ga15/AMY3 cells, further stably transfected with a CRE-luciferase plasmid
T1 sequence (P30988 25-474): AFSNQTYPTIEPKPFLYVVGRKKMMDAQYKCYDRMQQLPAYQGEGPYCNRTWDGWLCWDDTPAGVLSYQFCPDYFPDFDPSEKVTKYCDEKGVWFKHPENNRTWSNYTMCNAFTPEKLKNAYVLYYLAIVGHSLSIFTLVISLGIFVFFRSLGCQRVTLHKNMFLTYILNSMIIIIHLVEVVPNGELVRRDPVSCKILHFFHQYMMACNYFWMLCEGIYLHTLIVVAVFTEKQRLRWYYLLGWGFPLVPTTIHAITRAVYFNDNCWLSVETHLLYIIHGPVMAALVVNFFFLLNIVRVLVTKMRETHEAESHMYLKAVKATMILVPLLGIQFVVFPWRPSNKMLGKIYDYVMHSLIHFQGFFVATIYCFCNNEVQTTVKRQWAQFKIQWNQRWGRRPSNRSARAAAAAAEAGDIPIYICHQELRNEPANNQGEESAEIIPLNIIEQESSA
T1 sequence (O60896 24-148 partner): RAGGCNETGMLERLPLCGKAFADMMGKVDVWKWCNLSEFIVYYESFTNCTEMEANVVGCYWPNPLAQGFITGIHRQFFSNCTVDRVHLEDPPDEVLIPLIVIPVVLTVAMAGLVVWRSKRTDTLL
The experiment in a line: Luciferase assay in stably transfected amylin receptor/CRE-luc CHO cell line. The format is cell-based. Particulars: for Relative activity: EC50 ratio of Cagrilintide to the compound, Cagrilintide 100%; for EC50: amylin receptor/CRE-luc CHO cells, 24 hours incubation, luminescence.

The nature of series [1]: Heat accelerated stability assay, 40° C., detection on 10 d and 20 d. The conditions noted are these: 1 mg/mL, pH about 7.4, 40° C. The class given is physicochemical. The procedure:
The derivatives (1 mg/mL) were mixed with sodium dihydrogen phosphate (1.42 mg/mL) and dissolved in ultrapure water. After adjusting pH to about 7.4 with hydrochloric acid/sodium hydroxide, the solution was filtered into a sterilized vial in a clean bench using a 0.22 μm sterile filter. The vial was then capped and placed into the stability test chamber at 40° C. Detections were made on 10d and 20d, and during the assay changes in the characteristics and properties of the polypeptides were observed and recorded. The sample was then centrifuged for 3 min at 10000 rpm at 4° C., and the supernatant was transferred to a liquid phase sample vial for detecting the concentration and purity of the polypeptides using liquid phase chromatography described as below.
Flow rate: 1.0 mL/min; Autosampler temperature: 25° C.; Column temperature: 25° C.; Detection wavelength: 214 nm; Mobile phase A: 110 mM phosphate buffer (pH 5.8): ACN=90:10; Mobile phase B: ACN: IPA: H2O=85:5:10; and Gradient of elution listed in Table 6: […]

One may read the EC50 as the concentration that produces a half-maximal response. A low value points to an effect from little substance. With `CC[C@H](C)[C@H](NC(=O)[C@@H]1CCCN1C(=O)[C@H](CCCCN)NC(=O)[C@H](CC(C)C)NC(=O)[C@H](CC(N)=O)NC(=O)[C@H](CCC(N)=O)NC(=O)[C@H](CO)NC(=O)[C@H](CO)NC(=O)[C@H](Cc1c[nH]cn1)NC(=O)[C@H](CCCNC(=N)N)NC(=O)[C@H](CC(C)C)NC(=O)[C@H](Cc1ccccc1)NC(=O)[C@H](CC(=O)O)NC(=O)[C@H](C)NC(=O)[C@H](CC(C)C)NC(=O)[C@H](CCCNC(=N)N)NC(=O)[C@H](CCC(N)=O)NC(=O)[C@@H](NC(=O)[C@H](C)NC(=O)[C@H](C)NC(=O)[C@@H](NC(=O)[C@H](CO)NC(=O)[C@H](CC(C)C)NC(=O)[C@H](CCC(N)=O)NC(=O)[C@H](CO)NC(=O)[C@H](C)NC(=O)CC[C@H](NC(=O)CCCCCCCCCCCCCCCCCCC(=O)O)C(=O)O)[C@@H](C)O)[C@@H](C)O)C(=O)N[C@@H](CC(C)C)C(=O)N1CCC[C@H]1C(=O)N1CCC[C@H]1C(=O)N[C@H](C(=O)N[C@@H](CC(N)=O)C(=O)N[C@H](C(=O)NCC(=O)N[C@@H](CO)C(=O)N[C@@H](CC(N)=O)C(=O)N[C@H](C(=O)N1C[C@H](O)C[C@H]1C(N)=O)[C@@H](C)O)C(C)C)[C@@H](C)O` [M46] ({C20 diacid-γGlu}-ASQLSTAATQRLADFLRHSSQNLKPILPPTNVGSNT[Hyp]-NH2), on human amylin receptors, the Relative activity came out at 150% and the EC50 was found to be 0.06 nM. For the same molecule, the “Reduction in purity, 10 d” value in series [1] was 8.69%.

For `CC[C@H](C)[C@H](NC(=O)[C@@H]1CCCN1C(=O)[C@H](CCCCN)NC(=O)[C@H](CC(C)C)NC(=O)[C@H](CC(N)=O)NC(=O)[C@H](CCC(=O)O)NC(=O)[C@H](CO)NC(=O)[C@H](CO)NC(=O)[C@H](Cc1c[nH]cn1)NC(=O)[C@H](CCCNC(=N)N)NC(=O)[C@H](CC(C)C)NC(=O)[C@H](Cc1ccccc1)NC(=O)[C@H](CC(=O)O)NC(=O)[C@H](C)NC(=O)[C@H](CC(C)C)NC(=O)[C@H](CCCNC(=N)N)NC(=O)[C@H](CCC(N)=O)NC(=O)[C@@H](NC(=O)[C@H](C)NC(=O)[C@H](C)NC(=O)[C@@H](NC(=O)[C@H](CO)NC(=O)[C@H](CC(C)C)NC(=O)[C@H](CCC(N)=O)NC(=O)[C@H](CO)NC(=O)[C@H](C)NC(=O)CC[C@H](NC(=O)CCCCCCCCCCCCCCCCCCC(=O)O)C(=O)O)[C@@H](C)O)[C@@H](C)O)C(=O)N[C@@H](CC(C)C)C(=O)N1CCC[C@H]1C(=O)N1CCC[C@H]1C(=O)N[C@H](C(=O)N[C@@H](CC(N)=O)C(=O)N[C@H](C(=O)NCC(=O)N[C@@H](CO)C(=O)N[C@@H](CC(N)=O)C(=O)N[C@H](C(=O)N1C[C@H](O)C[C@H]1C(N)=O)[C@@H](C)O)C(C)C)[C@@H](C)O` [M47] ({C20 diacid-γGlu}-ASQLSTAATQRLADFLRHSSENLKPILPPTNVGSNT[Hyp]-NH2), at human amylin receptors, the Relative activity was found to be 113% and the response was half-maximal at 0.08 nM (EC50). In addition, in series [1], the “Reduction in purity, 10 d” value came out at 9.25%.

With `CC[C@H](C)[C@H](NC(=O)[C@@H]1CCCN1C(=O)[C@H](CCCCN)NC(=O)[C@H](CC(C)C)NC(=O)[C@H](CC(N)=O)NC(=O)[C@H](CO)NC(=O)[C@H](CO)NC(=O)[C@H](CO)NC(=O)[C@H](Cc1c[nH]cn1)NC(=O)[C@H](CCCNC(=N)N)NC(=O)[C@H](CC(C)C)NC(=O)[C@H](Cc1ccccc1)NC(=O)[C@H](CC(=O)O)NC(=O)[C@H](C)NC(=O)[C@H](CC(C)C)NC(=O)[C@H](CCCNC(=N)N)NC(=O)[C@H](CCC(N)=O)NC(=O)[C@@H](NC(=O)[C@H](C)NC(=O)[C@H](C)NC(=O)[C@@H](NC(=O)[C@H](CO)NC(=O)[C@H](CC(C)C)NC(=O)[C@H](CCC(N)=O)NC(=O)[C@H](CO)NC(=O)[C@H](C)NC(=O)CC[C@H](NC(=O)CCCCCCCCCCCCCCCCCCC(=O)O)C(=O)O)[C@@H](C)O)[C@@H](C)O)C(=O)N[C@@H](CC(C)C)C(=O)N1CCC[C@H]1C(=O)N1CCC[C@H]1C(=O)N[C@H](C(=O)N[C@@H](CC(N)=O)C(=O)N[C@H](C(=O)NCC(=O)N[C@@H](CO)C(=O)N[C@@H](CC(N)=O)C(=O)N[C@H](C(=O)N1C[C@H](O)C[C@H]1C(N)=O)[C@@H](C)O)C(C)C)[C@@H](C)O` [M48] ({C20 diacid-γGlu}-ASQLSTAATQRLADFLRHSSSNLKPILPPTNVGSNT[Hyp]-NH2), on human amylin receptors, the Relative activity was found to be 180% and the concentration for a half-maximal effect (EC50) came out at 0.05 nM. The “Reduction in purity, 10 d” value in series [1] was found to be 8.61%.

For the molecule `CC[C@H](C)[C@H](NC(=O)[C@@H]1CCCN1C(=O)[C@H](CCCCN)NC(=O)[C@H](CC(C)C)NC(=O)[C@H](CC(N)=O)NC(=O)[C@@H](NC(=O)[C@H](CO)NC(=O)[C@H](CO)NC(=O)[C@H](Cc1c[nH]cn1)NC(=O)[C@H](CCCNC(=N)N)NC(=O)[C@H](CC(C)C)NC(=O)[C@H](Cc1ccccc1)NC(=O)[C@H](CC(=O)O)NC(=O)[C@H](C)NC(=O)[C@H](CC(C)C)NC(=O)[C@H](CCCNC(=N)N)NC(=O)[C@H](CCC(N)=O)NC(=O)[C@@H](NC(=O)[C@H](C)NC(=O)[C@H](C)NC(=O)[C@@H](NC(=O)[C@H](CO)NC(=O)[C@H](CC(C)C)NC(=O)[C@H](CCC(N)=O)NC(=O)[C@H](CO)NC(=O)[C@H](C)NC(=O)CC[C@H](NC(=O)CCCCCCCCCCCCCCCCCCC(=O)O)C(=O)O)[C@@H](C)O)[C@@H](C)O)[C@@H](C)O)C(=O)N[C@@H](CC(C)C)C(=O)N1CCC[C@H]1C(=O)N1CCC[C@H]1C(=O)N[C@H](C(=O)N[C@@H](CC(N)=O)C(=O)N[C@H](C(=O)NCC(=O)N[C@@H](CO)C(=O)N[C@@H](CC(N)=O)C(=O)N[C@H](C(=O)N1C[C@H](O)C[C@H]1C(N)=O)[C@@H](C)O)C(C)C)[C@@H](C)O` [M49] ({C20 diacid-γGlu}-ASQLSTAATQRLADFLRHSSTNLKPILPPTNVGSNT[Hyp]-NH2), at human amylin receptors, the Relative activity worked out at 163% and a half-maximal response (EC50) required 0.08 nM. Besides, the “Reduction in purity, 10 d” value in series [1] worked out at 8.5%.

Regarding `CC[C@H](C)[C@H](NC(=O)[C@@H]1CCCN1C(=O)[C@H](CCCCN)NC(=O)[C@H](CC(C)C)NC(=O)[C@H](CC(N)=O)NC(=O)[C@H](C)NC(=O)[C@H](CO)NC(=O)[C@H](CO)NC(=O)[C@H](Cc1c[nH]cn1)NC(=O)[C@H](CCCNC(=N)N)NC(=O)[C@H](CC(C)C)NC(=O)[C@H](Cc1ccccc1)NC(=O)[C@H](CC(=O)O)NC(=O)[C@H](C)NC(=O)[C@H](CC(C)C)NC(=O)[C@H](CCCNC(=N)N)NC(=O)[C@H](CCC(N)=O)NC(=O)[C@@H](NC(=O)[C@H](C)NC(=O)[C@H](C)NC(=O)[C@@H](NC(=O)[C@H](CO)NC(=O)[C@H](CC(C)C)NC(=O)[C@H](CCC(N)=O)NC(=O)[C@H](CO)NC(=O)[C@H](C)NC(=O)CC[C@H](NC(=O)CCCCCCCCCCCCCCCCCCC(=O)O)C(=O)O)[C@@H](C)O)[C@@H](C)O)C(=O)N[C@@H](CC(C)C)C(=O)N1CCC[C@H]1C(=O)N1CCC[C@H]1C(=O)N[C@H](C(=O)N[C@@H](CC(N)=O)C(=O)N[C@H](C(=O)NCC(=O)N[C@@H](CO)C(=O)N[C@@H](CC(N)=O)C(=O)N[C@H](C(=O)N1C[C@H](O)C[C@H]1C(N)=O)[C@@H](C)O)C(C)C)[C@@H](C)O` [M50] ({C20 diacid-γGlu}-ASQLSTAATQRLADFLRHSSANLKPILPPTNVGSNT[Hyp]-NH2), on human amylin receptors, the Relative activity is 186% and the concentration giving a half-maximal response (EC50) was determined as 0.07 nM. Further, in series [1], the “Reduction in purity, 10 d” value is reported as 7.76% and the “Reduction in purity, 20 d” value is listed as 14.46%.

For `CC[C@H](C)[C@H](NC(=O)[C@@H]1CCCN1C(=O)[C@H](CCCCN)NC(=O)[C@H](CC(C)C)NC(=O)[C@H](CC(N)=O)NC(=O)CNC(=O)[C@H](CO)NC(=O)[C@H](CO)NC(=O)[C@H](Cc1c[nH]cn1)NC(=O)[C@H](CCCNC(=N)N)NC(=O)[C@H](CC(C)C)NC(=O)[C@H](Cc1ccccc1)NC(=O)[C@H](CC(=O)O)NC(=O)[C@H](C)NC(=O)[C@H](CC(C)C)NC(=O)[C@H](CCCNC(=N)N)NC(=O)[C@H](CCC(N)=O)NC(=O)[C@@H](NC(=O)[C@H](C)NC(=O)[C@H](C)NC(=O)[C@@H](NC(=O)[C@H](CO)NC(=O)[C@H](CC(C)C)NC(=O)[C@H](CCC(N)=O)NC(=O)[C@H](CO)NC(=O)[C@H](C)NC(=O)CC[C@H](NC(=O)CCCCCCCCCCCCCCCCCCC(=O)O)C(=O)O)[C@@H](C)O)[C@@H](C)O)C(=O)N[C@@H](CC(C)C)C(=O)N1CCC[C@H]1C(=O)N1CCC[C@H]1C(=O)N[C@H](C(=O)N[C@@H](CC(N)=O)C(=O)N[C@H](C(=O)NCC(=O)N[C@@H](CO)C(=O)N[C@@H](CC(N)=O)C(=O)N[C@H](C(=O)N1C[C@H](O)C[C@H]1C(N)=O)[C@@H](C)O)C(C)C)[C@@H](C)O` [M51] ({C20 diacid-γGlu}-ASQLSTAATQRLADFLRHSSGNLKPILPPTNVGSNT[Hyp]-NH2), on human amylin receptors, the Relative activity was 163% and it took 0.08 nM to reach a half-maximal effect (EC50). In series [1], the “Reduction in purity, 10 d” value stood at 23.4% and the “Reduction in purity, 20 d” value stood at 35.42%.
